Assay results reported in patent publication US20080249042A1, “All-Trans-Retinol: All-Trans-13,14-Dihydroretinol Saturase and Methods of Its Use” (UNIVERSITY OF WASHINGTON, priority 2004, published 2008).
Read-outs that look alike come from different tables or passages of the source.

Columns and labels:
[1] = Liver retinoids of Lrat-/- mice 3 h after gavage with all-trans-ROL palmitate; assay type: in vivo, mouse; conditions: for Level of liver retinoids 3 hr following gavage with ROL palmitate / concentration at 3 h: Lrat-/- mice, 3 hr post-gavage, liver; for concentration at 3 h: Lrat−/− (LRAT-deficient knockout), mouse, oral, read-out: Level of liver retinoids 3 hr following gavage with ROL palmitate
Excerpt: Metabolism of Retinoids in Vivo. All animal experiments employed procedures approved by the University of Washington and conformed to recommendations of the American Veterinary Medical Association Panel on Euthanasia and recommendations of the Association of Research for Vision and Ophthalmology. Animals were maintained on a 12-h light and 12-h dark cycle. All manipulations were done under dim red or infrared light (>560 nm). Most experiments used 6-12-week-old mice. Lrat−/− mice were genotyped as described previously. Batten, et al. J. Biol. Chem. 279:10422-10432, 2004. Animals were maintained on a control chow diet up to 1 h prior to oral gavage. The appropriate amount of all-trans-ROL palmitate, all-trans-DROL, or all-trans-RA was dissolved in vegetable oil and administered by oral gavage 3 h prior to analysis.
Analysis of Retinoids. Liver (1 g) from retinoid gavaged or naive mice was homogenized in 2 ml of 137 mM NaCl, 2.7 mM KCl, and 10 mM sodium phosphate (pH 7.4) for 30 s using a Polytron homogenizer. 10 μl of 5 M NaOH was added to 3 ml of the ethanolic extract, and the nonpolar retinoids were extracted using 5 ml of hexane. The extraction was repeated, and the organic phases were combined, dried under vacuum, resuspended in hexane, and examined by normal phase HPLC using a normal phase column (Beckman Ultrasphere Si 5μ, 4.6×250 mm). The elution condition was an isocratic solvent system of 10% ethyl acetate in hexane (v/v) for 25 min at a flow rate of 1.4 ml/min at 20° C. with detection at 325 and 290 nm for the detection of nonpolar retinoids and 13,14-dihydroretinoids, respectively. The aqueous phase was acidified with 40 μl of 12 N HCl, and polar retinoids were extracted with 5 ml of hexane. The extraction was repeated, and the organic phases of the polar retinoid extractions were combined, dried, resuspended in solvent composed of 80% CH3CN, 10 mM ammonium acetate, 1% acetic acid, and examined by reverse phase HPLC. Analysis of polar retinoids from tissues was done by reverse phase HPLC using a narrowbore, 120-Å, 5-μm, 2.1×250 mm, Denali C18 column (Grace-Vydac, Hesperia, Calif.). The solvent system was composed of buffer A, 80% methanol, 20% 36 mM ammonium acetate (pH 4.7 adjusted with acetic acid), and buffer B, 100% methanol. The HPLC elution conditions were […], 100% buffer A for 40 min, 100% buffer B for 10 min, and 10 min equilibration in buffer A. The elution profiles of RA and DRA were monitored using an online diode array detector set at 350 and 290 nm, respectively. The peaks were identified based on their UV-visible spectra and/or coelution with synthetic or commercially available standards. The measured area of absorbance was converted to picomoles based on a calibration of the HPLC columns using a known amount of all-trans-RA or all-trans-ROL (Sigma) and all-trans-DROL or all-trans-DRA (synthetic standards). The extraction efficiency was monitored by spiking a tissue sample with [^3H]RA (PerkinElmer Life Sciences) and monitoring the radioactivity recovered from the HPLC column. In the case of liver samples the extraction efficiency was 95% or better. Mass spectrometry analyses of synthesized retinoids and of natural retinoids purified by HPLC were performed using a Kratos profile HV-3 direct probe mass spectrometer.

[2] = molecular target: T1, CYP26B1 (Mus musculus, UniProt Q811W2); conditions: 0.1 mM, 4 h, cells in culture
T1 sequence (Q811W2 1-512): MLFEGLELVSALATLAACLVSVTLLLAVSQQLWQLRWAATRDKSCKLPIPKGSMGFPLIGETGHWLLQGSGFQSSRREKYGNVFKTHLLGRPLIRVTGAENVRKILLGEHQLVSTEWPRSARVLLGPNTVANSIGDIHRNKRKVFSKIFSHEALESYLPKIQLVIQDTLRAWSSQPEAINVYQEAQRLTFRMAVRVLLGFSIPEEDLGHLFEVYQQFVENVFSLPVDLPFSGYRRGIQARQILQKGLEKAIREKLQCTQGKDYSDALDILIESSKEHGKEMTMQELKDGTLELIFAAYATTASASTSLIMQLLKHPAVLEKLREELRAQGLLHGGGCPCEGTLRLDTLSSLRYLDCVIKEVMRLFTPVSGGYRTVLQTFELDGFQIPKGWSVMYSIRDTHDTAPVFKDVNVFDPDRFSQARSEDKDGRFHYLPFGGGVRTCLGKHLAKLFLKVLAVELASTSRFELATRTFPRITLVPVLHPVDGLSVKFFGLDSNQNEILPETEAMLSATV
Experimental: (§1) CYP26A1 Oxidation Assay. […] After 24 h, the transfected cells were split into 12-well plates to ensure an equal number of transfected cells in each assay well. […] The peaks were identified based on their spectra and coelution with standards. The cell lysate was examined for expression of CYP26A1, -B1, and -C1 by SDS-PAGE and immunoblotting of the V5 epitope-tagged recombinant protein using an anti-V5 epitope monoclonal antibody (Invitrogen).

[3] = molecular target: T2, CYP26A1 (Mus musculus, UniProt O55127); conditions: 0.1 mM, 4 h, cells in culture
T2 sequence (O55127 1-497): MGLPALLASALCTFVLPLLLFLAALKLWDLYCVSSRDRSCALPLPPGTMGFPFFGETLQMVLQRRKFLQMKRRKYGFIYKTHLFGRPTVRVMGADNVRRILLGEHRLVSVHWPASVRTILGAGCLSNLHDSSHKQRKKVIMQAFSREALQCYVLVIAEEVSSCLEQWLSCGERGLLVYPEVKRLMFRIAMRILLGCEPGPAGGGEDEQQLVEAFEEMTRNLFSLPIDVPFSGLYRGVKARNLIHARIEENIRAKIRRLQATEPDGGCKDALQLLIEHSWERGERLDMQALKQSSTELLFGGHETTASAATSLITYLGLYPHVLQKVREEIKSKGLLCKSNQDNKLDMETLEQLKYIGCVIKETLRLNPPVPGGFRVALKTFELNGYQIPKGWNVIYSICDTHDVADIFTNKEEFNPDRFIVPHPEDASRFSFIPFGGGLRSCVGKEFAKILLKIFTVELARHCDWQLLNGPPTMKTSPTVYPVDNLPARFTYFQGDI
Experimental: as §1

[4] = molecular target: T3, prRDH (Homo sapiens, UniProt Q9NYR8); experiment: Oxidation by photoreceptor-specific RDH; assay type: biochemical; conditions: results not shown
T3 sequence (Q9NYR8 1-311): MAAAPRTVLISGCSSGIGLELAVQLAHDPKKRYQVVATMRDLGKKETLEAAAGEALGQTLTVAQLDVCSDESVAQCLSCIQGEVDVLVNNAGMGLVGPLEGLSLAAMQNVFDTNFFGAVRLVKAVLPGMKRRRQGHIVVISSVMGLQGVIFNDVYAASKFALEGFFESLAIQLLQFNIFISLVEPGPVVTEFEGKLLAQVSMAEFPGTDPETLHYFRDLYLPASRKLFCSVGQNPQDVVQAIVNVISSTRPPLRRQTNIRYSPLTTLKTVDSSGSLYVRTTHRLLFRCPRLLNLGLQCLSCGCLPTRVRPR

[5] = 3 h post-gavage with ROL palmitate
[6] = 10^5 IU/kg body weight all-trans-ROL palmitate
[7] = 10^6 IU/kg body weight all-trans-ROL palmitate

Row | Structure (SMILES) | Liver level, fold lower than all-trans-RA [1, 5] | Level of liver retinoids 3 hr following gavage with ROL palmitate [1, 6] | Level of liver retinoids 3 hr following gavage with ROL palmitate [1, 7] | Oxidation to polar metabolites by CYP26B1 [2] | Oxidation to polar metabolites by CYP26A1 [3] | Liver level, fold lower than all-trans-ROL [1, 5] | Oxidation to the aldehyde by prRDH [4] | concentration at 3 h [1, 6] | concentration at 3 h [1, 7]
1 | CC1=C(/C=C/C(C)=C/C=C/C(C)CC(=O)O)C(C)(C)CCC1 (stereo not drawn) [all-trans-DRA, all-trans-13,14-dihydroretinoic acid] | 30-50 fold | 10 ± 2 pmol/g tissue | 190 ± 17 pmol/g tissue | efficiently carried out the oxidation | efficiently carried out the oxidation |  |  |  | 
2 | CC1=C(/C=C/C(C)=C/C=C/C(C)CCO)C(C)(C)CCC1 (stereo not drawn) [all-trans-DROL, all-trans-13,14-dihydroretinol] |  | 21 ± 4 pmol/g tissue | 100 ± 18 pmol/g tissue |  |  | 280-330 fold | much less so |  | 
3 | CC1=C(/C=C/C(C)=C/C=C/C(C)=C/C(=O)O)C(C)(C)CCC1 [all-trans-RA, all-trans-retinoic acid, reference compound] |  |  |  | efficiently carried out the oxidation | efficiently carried out the oxidation |  |  | 0.32 ± 0.24 µM | 9.4 µM
4 | CC1=C(/C=C/C(C)=C/C=C/C(C)=C/CO)C(C)(C)CCC1 [all-trans-ROL, all-trans-retinol] |  | 7,000 ± 1,200 pmol/g tissue | 28,000 ± 300 pmol/g tissue |  |  |  | active |  | 
